In ChEMBL document CHEMBL2203240, “Synthesis of propiophenone derivatives as new class of antidiabetic agents reducing body weight in db/db mice” (Bioorg Med Chem, 2012) one finds Activity, inhibition and IC50 data, which are given here for 18 compounds.

Assay [1] concerns Rattus norvegicus. In words: Antihyperglycemic activity against sucrose loaded Charles Foster/Wistar albino rat assessed as reduction in blood glucose level at 100 mg/kg, po administered 30 mins before sucrose challenge by glucometer. The assay is classed as functional. Details: scale not given: the % may be the effect or the level left.
In assay [2] the test system is Rattus norvegicus. In words: Antihyperglycemic activity against sucrose challenged streptozotocin-induced diabetic Sprague-Dawley albino rat assessed as reduction of AUC of plasma glucose level at 100 mg/kg, po after 1 to 5 hrs administered 30 mins before sucrose challenge by glucometer. Details: scale not given: the % may be the effect or the level left. The assay is classed as functional.

Assay [3] concerns Rattus norvegicus. In words: Antihyperglycemic activity against sucrose challenged streptozotocin-induced diabetic Sprague-Dawley albino rat assessed as reduction of AUC of plasma glucose level at 100 mg/kg, po after 1 to 24 hrs administered 30 mins before sucrose challenge by glucometer. The assay is classed as functional. Details: scale not given: the % may be the effect or the level left.

In assay [4] the target is T1, Glucose-6-phosphatase catalytic subunit 1 (Homo sapiens) (UniProt P35575).
T1 sequence (whole entry): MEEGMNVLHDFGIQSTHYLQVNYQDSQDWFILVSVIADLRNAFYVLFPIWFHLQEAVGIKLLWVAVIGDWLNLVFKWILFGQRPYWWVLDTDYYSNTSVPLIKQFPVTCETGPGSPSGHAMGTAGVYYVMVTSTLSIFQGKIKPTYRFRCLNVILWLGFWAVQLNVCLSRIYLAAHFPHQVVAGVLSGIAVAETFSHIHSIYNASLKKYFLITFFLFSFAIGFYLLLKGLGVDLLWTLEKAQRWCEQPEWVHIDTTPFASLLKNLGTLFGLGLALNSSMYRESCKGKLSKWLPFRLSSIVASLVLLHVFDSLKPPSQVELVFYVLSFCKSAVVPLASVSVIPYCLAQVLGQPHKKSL
Put plainly: Inhibition of glucose-6-phosphatase at 100 uM.

Assay [5] is described as follows: Inhibition of glycogen phosphorylase at 100 uM.
The nature of assay [6]: Inhibition of alpha-glucosidase at 100 uM.
Assay [7] concerns the target Dipeptidyl peptidase 4 (Homo sapiens) (UniProt P27487). In words: Inhibition of DPP4 at 100 uM.
Assay [8] deals with T2, Tyrosine-protein phosphatase non-receptor type 1 (Homo sapiens) (UniProt P18031).
T2 sequence (whole entry): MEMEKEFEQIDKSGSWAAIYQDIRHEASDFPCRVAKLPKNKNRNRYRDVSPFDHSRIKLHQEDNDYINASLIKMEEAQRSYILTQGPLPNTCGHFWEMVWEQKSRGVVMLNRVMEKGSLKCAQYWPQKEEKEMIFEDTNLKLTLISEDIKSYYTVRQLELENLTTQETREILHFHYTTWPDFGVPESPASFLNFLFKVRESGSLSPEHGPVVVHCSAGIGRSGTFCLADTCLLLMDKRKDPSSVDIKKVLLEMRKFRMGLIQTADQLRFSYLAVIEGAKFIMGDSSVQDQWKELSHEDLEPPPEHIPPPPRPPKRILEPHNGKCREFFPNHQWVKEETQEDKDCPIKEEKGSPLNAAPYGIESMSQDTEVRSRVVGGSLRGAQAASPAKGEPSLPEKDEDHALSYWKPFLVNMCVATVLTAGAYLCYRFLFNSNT
In words: Inhibition of PTP1B at 100 uM.

Assay [9] deals with T3, Tyrosine-protein phosphatase non-receptor type 1 (Homo sapiens, UniProt P18031).
T3 sequence (P18031 whole entry): T2 sequence (whole entry)
Put plainly: Inhibition of PTP1B.

Assay [10] has as its system Mus musculus. In words: Antihyperglycemic activity in C57BL/Ks db/db mouse assessed as reduction in postprandial hyperglycemia at 30 mg/kg, po measured for 10 days post dose relative to control. In kind it is functional. Details: scale not given: the % may be the effect or the level left.
In assay [11] the test system is Mus musculus. Put plainly: Antihyperglycemic activity in C57BL/Ks db/db mouse assessed as reduction in blood glucose level at 30 mg/kg/day, po measured on day 6 post dose by postprandial oral glucose tolerance test relative to control. The assay is classed as functional. Details: scale not given: the % may be the effect or the level left.
The subject of assay [12] is Mus musculus. In words: Antihyperglycemic activity in C57BL/Ks db/db mouse assessed as reduction in blood glucose level at 30 mg/kg/day, po measured day 10 post dose by postprandial oral glucose tolerance test relative to control. Also on record: scale not given: the % may be the effect or the level left. In kind it is functional.
In assay [13] the test system is Mus musculus. Put plainly: Antidyslipidemic activity in C57BL/Ks db/db mouse assessed as reduction in plasma triglyceride level at 30 mg/kg/day, po relative to control. The assay is classed as functional. Also on record: scale not given: the % may be the effect or the level left.
For assay [14], the system named is Mus musculus. Put plainly: Antidyslipidemic activity in C57BL/Ks db/db mouse assessed as reduction in plasma total cholesterol at 30 mg/kg/day, po relative to control. In kind it is functional. Also on record: scale not given: the % may be the effect or the level left.
The test system of assay [15] is Mus musculus. Put plainly: Antidyslipidemic activity in C57BL/Ks db/db mouse assessed as increase in HDL-cholesterol at 30 mg/kg/day, po relative to control. In kind it is functional.
The subject of assay [16] is Mus musculus. In words: Antihyperglycemic activity in C57BL/Ks db/db mouse assessed as reduction in insulin level at 30 mg/kg/day, po relative to control. The assay is classed as functional. Also on record: scale not given: the % may be the effect or the level left.
In assay [17] the test system is Mus musculus. In words: Antiobesity activity in C57BL/Ks db/db mouse assessed as reduction in body weight change at 30 mg/kg/day, po measured for 10 days relative to control. The assay is classed as functional, organism-based.
In assay [18] the test system is Mus musculus. In words: Reduction in food intake in C57BL/Ks db/db mouse at 30 mg/kg/day, po measured from day 3 to day 10. In kind it is functional, organism-based.

Each structure is given as a SMILES string. Active and inactive are the calls of the source. The rule behind the calls is not given here.

Dipeptidyl peptidase 4 (Homo sapiens), sequence (P27487 whole entry, looked up): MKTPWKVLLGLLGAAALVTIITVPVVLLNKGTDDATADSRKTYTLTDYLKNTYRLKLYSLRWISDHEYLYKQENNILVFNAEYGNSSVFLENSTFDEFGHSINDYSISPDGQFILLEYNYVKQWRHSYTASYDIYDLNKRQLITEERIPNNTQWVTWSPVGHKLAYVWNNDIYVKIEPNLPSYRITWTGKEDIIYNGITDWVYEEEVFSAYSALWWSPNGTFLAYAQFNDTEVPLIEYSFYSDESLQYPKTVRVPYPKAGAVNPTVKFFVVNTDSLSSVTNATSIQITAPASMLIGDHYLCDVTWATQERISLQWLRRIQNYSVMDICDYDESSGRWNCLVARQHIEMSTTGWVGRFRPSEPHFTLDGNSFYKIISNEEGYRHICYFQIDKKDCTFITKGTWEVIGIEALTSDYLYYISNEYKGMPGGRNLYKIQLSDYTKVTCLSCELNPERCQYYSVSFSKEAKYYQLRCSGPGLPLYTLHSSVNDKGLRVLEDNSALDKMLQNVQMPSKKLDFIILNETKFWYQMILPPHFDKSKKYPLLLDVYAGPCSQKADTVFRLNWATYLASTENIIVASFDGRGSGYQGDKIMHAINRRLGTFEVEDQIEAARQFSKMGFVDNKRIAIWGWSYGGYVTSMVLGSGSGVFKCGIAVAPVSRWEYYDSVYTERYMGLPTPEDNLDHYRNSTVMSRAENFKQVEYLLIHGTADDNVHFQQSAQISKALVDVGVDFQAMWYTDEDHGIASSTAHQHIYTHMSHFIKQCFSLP

In the case of `COc1ccc(Cl)cc1C(=O)NCCc1ccc(S(=O)(=O)NC(=O)NC2CCCCC2)cc1` [GLYBURIDE], the Activity in the assay on Rattus norvegicus [1] came out at 32.3%.

The inhibition is how much of the control response was suppressed. Consider `CCC(=O)c1c(O)cccc1OCCN1CCCCC1`, for which the Activity is 40.4% in the assay with Rattus norvegicus [1], 29.2% in the assay on Rattus norvegicus [2] and 19.7% in the assay on Rattus norvegicus [3]. Besides, the inhibition was 21.3% in [4]; < 5% in [5]; < 5% in assay [6]; < 5% in assay [7]; 27.5% in assay [8].

Usually IC50 stands for the concentration that gives 50% inhibition. For the compound `CCCCNCCCOc1cccc(O)c1C(=O)CC`, the Activity with Rattus norvegicus [1] amounted to 11%. The inhibition in [4] was 18.3%; in assay [5] it was 24.8%; in [6] it was < 5%; in [7], 17.4%; in assay [8], 52.1%. In assay [9], this compound registered an IC50 of 19.2 µM.

As for `CCOC(=O)C(CCCOc1cccc(OCCN2CCCCC2)c1C(=O)CC)C(=O)OCC`, the Activity with Rattus norvegicus [1] was found to be 16.4%. The inhibition was < 5% in assay [4]; < 5% in assay [5]; < 5% in assay [6]; < 5% in [7]; 19.6% in [8].

Take `CCC(=O)c1c(O)cccc1OCCN(C)C`: the Activity with Rattus norvegicus [1] came to 19.45%; in the assay on Rattus norvegicus [2] it was 12.1%; in the assay on Rattus norvegicus [3], 7.4%. Also, the inhibition in [4] is 11.3%; in assay [5], < 5%; in [6], 18.4%; in assay [7] it was 24.2%; in [8], 19.3%.

With `CN(CCOc1ccc(CC2SC(=O)NC2=O)cc1)c1ccccn1` (centres undefined) [ROSIGLITAZONE], the figures for the Activity with Mus musculus [10], in the assay on Mus musculus [11] and with Mus musculus [12] were 51.3%, 33.9% and 46.5%, respectively.

For the compound `CCC(=O)c1c(O)cccc1OCCN1CCCC1`, in the assay on Rattus norvegicus [1], the Activity was determined as 21.08%. Further, the inhibition is < 5% in assay [4]; 13.7% in assay [5]; 28.9% in [6]; < 5% in assay [7]; 36.4% in assay [8].

For the compound `CCC(=O)c1c(O)cccc1OCCCN1CCCC1`, the Activity with Rattus norvegicus [1] is on record as 26.8%; in the assay with Rattus norvegicus [2] it was 16.9%; in the assay on Rattus norvegicus [3], 14.8%. Also, the inhibition in [4] was 13.6%; in assay [5], 19.5%; in [6], < 5%; in [7] it was 25.6%; in assay [8] it was 42.1%.

On to `CCC(=O)c1c(O)cccc1OCCCNc1ccc(C)cc1`, for which the Activity was determined as 28.7% in the assay with Rattus norvegicus [1], 3.02% with Rattus norvegicus [2] and 2.02% in the assay with Rattus norvegicus [3]. For the same compound, the inhibition in assay [4] was 18.9%; in assay [5] it was < 5%; in [6] it was 18.9%; in assay [7], < 5%; in assay [8], 79.8%. The midpoint of inhibition in [9], the IC50, lay at 12.5 µM.

For the compound `CCC(=O)c1c(O)cccc1OCCCNc1ccc(OC)cc1`, the Activity was 54.6% in the assay on Rattus norvegicus [1]; 22.1% in the assay on Rattus norvegicus [2]; 22.8% in the assay on Rattus norvegicus [3]; 23.9% with Mus musculus [10]; 28.4% with Mus musculus [11]; 29.9% with Mus musculus [12]. Besides, the Activity in the assay on Mus musculus [13] was 22%; in the assay on Mus musculus [14], 14.8%; in the assay on Mus musculus [15], 7.2%; in the assay on Mus musculus [16] it was 23.6%. In addition, the outcome with Mus musculus [17] and in the assay on Mus musculus [18] was Active. Besides, the inhibition in assay [4] was < 5%; in [5], 23%; in assay [6], 19.3%; in assay [7], 13.7%; in assay [8], 83.6%. Further, half-maximal inhibition in assay [9] (IC50) required 8.3 µM.

Take `CCOC(=O)C(CCCOc1cccc(OCCN(CC)CC)c1C(=O)CC)C(=O)OCC`: in the assay with Rattus norvegicus [1], the Activity is 17%. Besides, the inhibition in [4] was < 5%; in [5] it was 22.9%; in assay [6] it was < 5%; in [7], < 5%; in assay [8], 40.4%.

With `CCCCN(C)CCCOc1cccc(O)c1C(=O)CC`, the Activity in the assay with Rattus norvegicus [1] came out at 23.8%; with Rattus norvegicus [2], 27.5%; with Rattus norvegicus [3], 21.5%; in the assay with Mus musculus [10] it was 39.6%; in the assay with Mus musculus [11] it was 26.7%; in the assay on Mus musculus [12], 33.6%. The Activity with Mus musculus [13] was 23.8%; in the assay with Mus musculus [14], 20.4%; in the assay on Mus musculus [15] it was 4.03%; with Mus musculus [16] it was 27.7%. Further, the outcome with Mus musculus [17] and with Mus musculus [18] was Active. Besides, the inhibition in [4] was 17.3%; in assay [5] it was < 5%; in assay [6], < 5%; in [7], < 5%; in [8], 31.9%.

Consider `CCC(=O)c1c(O)cccc1OCCCN1CCCCC1`, for which the Activity with Rattus norvegicus [1] is listed as 33.2%; in the assay with Rattus norvegicus [2], 10.2%; in the assay on Rattus norvegicus [3], 8.6%. In addition, the inhibition in assay [4] is < 5%; in [5], < 5%; in [6], < 5%; in [7], < 5%; in [8], 31.8%.

For `CCOC(=O)C(CCCOc1cccc(OCCN(C)C)c1C(=O)CC)C(=O)OCC`, the Activity with Rattus norvegicus [1] is 11.5%. The inhibition was < 5% in assay [4]; < 5% in assay [5]; < 5% in [6]; < 5% in [7]; 51.1% in [8]. This compound returned an IC50 in assay [9] of 20.4 µM.

As to `CCC(=O)c1c(O)cccc1OCCN(CC)CC`, the Activity with Rattus norvegicus [1] is recorded as 38.4%; in the assay on Rattus norvegicus [2], 23%; in the assay on Rattus norvegicus [3], 20.4%. Also, the inhibition in [4] was 11.6%; in [5] it was < 5%; in [6], 19.3%; in assay [7] it was < 5%; in assay [8], 28.8%.

Take `CCOC(=O)C(CCCOc1cccc(OCCCNc2ccc(C)cc2)c1C(=O)CC)C(=O)OCC`: the Activity in the assay on Rattus norvegicus [1] came out at 8.49%. In addition, the inhibition was < 5% in [4]; < 5% in assay [5]; 11.8% in [6]; < 5% in [7]; 42.6% in assay [8].

Consider `CN(C)C(=N)NC(=N)N` [METFORMIN], for which the Activity in the assay with Rattus norvegicus [1] is 18.9%.

Turning to `CCOC(=O)C(CCCOc1cccc(OCCN2CCCC2)c1C(=O)CC)C(=O)OCC`, in the assay with Rattus norvegicus [1], the Activity is reported as 22.9%. For the same compound, the inhibition in assay [4] was 13.9%; in [5] it was < 5%; in assay [6] it was < 5%; in assay [7], 18.3%; in assay [8], 58.6%. The IC50 in assay [9] came out at 18.6 µM.
